Reference: ChEMBL document CHEMBL2434896, “Carbonic anhydrase inhibitors. Synthesis of heterocyclic 4-substituted pyridine-3-sulfonamide derivatives and their inhibition of the human cytosolic isozymes I and II and transmembrane tumor-associated isozymes IX and XII” (Eur J Med Chem, 2013)
The source made the active and inactive calls. No cut-off for these calls is given here.

Assays:
[1] = test system: OVCAR-3; assay: Growth inhibition of human OVCAR3 cells at 10 uM after 48 hrs by sulforhodamine B assay; format: functional; details: for inhibition of growth at 10 µM: OVCAR-3, 48 h, read-out: GI
[2] = (§1) Growth inhibition of human EKVX cells at 10 uM after 48 hrs by sulforhodamine B assay; format: functional; details: read-out: GI
[3] = test system: SNB-75; assay: Growth inhibition of human SNB75 cells at 10 uM after 48 hrs by sulforhodamine B assay; format: functional; details: for inhibition of growth at 10 µM: SNB-75, 48 h, read-out: GI
[4] = test system: A498; assay: Growth inhibition of human A498 cells at 10 uM after 48 hrs by sulforhodamine B assay; format: functional; details: for inhibition of growth at 10 µM: A498, 48 h, read-out: GI
[5] = test system: IGROV-1; assay: Growth inhibition of human IGROV1 cells at 10 uM after 48 hrs by sulforhodamine B assay; format: functional; details: for inhibition of growth at 10 µM: IGROV-1, 48 h, read-out: GI
[6] = test system: MCF7; assay: Growth inhibition of human MCF7 cells at 10 uM after 48 hrs by sulforhodamine B assay; format: functional; details: for inhibition of growth at 10 µM: MCF7, 48 h, read-out: GI
[7] = test system: KM12; assay: Growth inhibition of human KM12 cells at 10 uM after 48 hrs by sulforhodamine B assay; format: functional; details: for inhibition of growth at 10 µM: KM12, 48 h, read-out: GI
[8] = Growth inhibition of human HCC2998 cells at 10 uM after 48 hrs by sulforhodamine B assay; format: functional; details: HCC 2998, 48 h, read-out: GI
[9] = test system: NCI-H226; assay: Growth inhibition of human NCI-H226 cells at 10 uM after 48 hrs by sulforhodamine B assay; format: functional; details: for inhibition of growth at 10 µM: NCI-H226, 48 h, read-out: GI
[10] = target: Carbonic anhydrase 9 (Homo sapiens, UniProt Q16790); assay: Inhibition of human carbonic anhydrase 9 after 15 mins by stopped flow CO2 hydration assay
[11] = Growth inhibition of human NCI-ADR-RES cells at 10 uM after 48 hrs by sulforhodamine B assay; format: functional; details: read-out: GI
[12] = test system: HL-60(TB); assay: Growth inhibition of human HL-60(TB) cells at 10 uM after 48 hrs by sulforhodamine B assay; format: functional; details: for inhibition of growth at 10 µM: HL-60, 48 h, read-out: GI
[13] = test system: MDA-MB-435; assay: Growth inhibition of human MDA-MB-435 cells at 10 uM after 48 hrs by sulforhodamine B assay; format: functional; details: for inhibition of growth at 10 µM: MDA-MB-435, 48 h, read-out: GI
[14] = test system: SF-539; assay: Growth inhibition of human SF539 cells at 10 uM after 48 hrs by sulforhodamine B assay; format: functional; details: for inhibition of growth at 10 µM: SF-539, 48 h, read-out: GI
[15] = test system: CAKI-1; assay: Growth inhibition of human CAKI-1 cells at 10 uM after 48 hrs by sulforhodamine B assay; format: functional; details: for inhibition of growth at 10 µM: CAKI-1, 48 h, read-out: GI
[16] = test system: EKVX; assay: as §1; format: functional
[17] = test system: A549; assay: Growth inhibition of human A549/ATCC cells at 10 uM after 48 hrs by sulforhodamine B assay; format: functional; details: for inhibition of growth at 10 µM: A549, 48 h, read-out: GI
[18] = Growth inhibition of human Hs 578T cells at 10 uM after 48 hrs by sulforhodamine B assay; format: functional; details: read-out: GI

SMILES	inhibition of growth at 10 µM [2] [%]	inhibition of growth at 10 µM [3] [%]	inhibition of growth at 10 µM [4] [%]	inhibition of growth at 10 µM [5] [%]	inhibition of growth at 10 µM [6] [%]	inhibition of growth at 10 µM [7] [%]	inhibition of growth at 10 µM [9] [%]	Ki [10] [nM]	inhibition of growth at 10 µM [12] [%]	inhibition of growth at 10 µM [13] [%]	inhibition of growth at 10 µM [14] [%]	inhibition of growth at 10 µM [15] [%]	growth inhibition (GI) [16]	growth inhibition (GI) [4]	growth inhibition (GI) [5]	growth inhibition (GI) [7]	growth inhibition (GI) [13]	inhibition of growth at 10 µM [17] [%]	growth inhibition (GI) [1]	growth inhibition (GI) [6]	also measured
NS(=O)(=O)c1cnccc1N1CCN(c2ccc(Cl)c(Cl)c2)CC1	30	3	12	31	37	18	28	341	18	32	16	36	–	–	–	–	–	–	–	–	inhibition of growth at 10 µM [1]: 30%; inhibition of growth at 10 µM [8]: 17%; inhibition of growth at 10 µM [11]: 25%
CCc1cc(CC)n(-c2ccncc2S(N)(=O)=O)n1	–	3	–	–	10	–	–	31.7	–	–	4	1	inactive	inactive	inactive	inactive	inactive	1	–	–	inhibition of growth at 10 µM [1]: 1%; inhibition of growth at 10 µM [8]: 6%; growth inhibition (GI) [9]: inactive; growth inhibition (GI) [12]: inactive
Cc1ccc(C)c(N2CCN(c3ccncc3S(N)(=O)=O)CC2)c1	–	9	16	6	–	–	3	548	6	–	1	9	inactive	–	–	inactive	inactive	2	inactive	inactive	–
NS(=O)(=O)c1cnccc1N1CCN(c2ccccn2)CC1	1	12	24	–	3	–	5	113	–	2	–	10	–	–	inactive	inactive	–	2	inactive	–	inhibition of growth at 10 µM [11]: 6%; inhibition of growth at 10 µM [18]: 20%; growth inhibition (GI) [12]: inactive; growth inhibition (GI) [14]: inactive
NS(=O)(=O)c1cnccc1N1CCC(Cc2ccccc2)CC1	–	–	8	3	–	2	12	136	3	–	4	3	inactive	–	–	–	inactive	1	inactive	inactive	growth inhibition (GI) [3]: inactive
NS(=O)(=O)c1cnccc1N1CCN(Cc2ccc3c(c2)OCO3)CC1	–	9	10	–	–	1	–	89.4	7	–	2	–	inactive	–	inactive	–	inactive	2	inactive	inactive	growth inhibition (GI) [9]: inactive; inhibition of growth at 10 µM [11]: 3%; growth inhibition (GI) [15]: inactive
NS(=O)(=O)c1cnccc1N1CCN(c2ncccn2)CC1	–	11	–	–	–	–	–	78.3	9	–	–	–	inactive	inactive	inactive	inactive	inactive	–	inactive	inactive	growth inhibition (GI) [9]: inactive; growth inhibition (GI) [17]: inactive; growth inhibition (GI) [14]: inactive; growth inhibition (GI) [15]: inactive
COc1ccccc1N1CCN(c2ccncc2S(N)(=O)=O)CC1	3	10	–	–	3	–	3	652	–	2	5	–	–	inactive	inactive	inactive	–	–	inactive	–	growth inhibition (GI) [15]: inactive
NS(=O)(=O)c1cnccc1N1CCN(c2ccc(Cl)cc2)CC1	11	–	–	10	7	–	13	135	1	1	8	15	–	inactive	–	inactive	–	–	inactive	–	growth inhibition (GI) [3]: inactive
